The record followed here is US20100092549A1, “Dosage Form Containing Two or More Active Pharmaceutical Ingredients in Different Physical Forms” (priority 2007, published 2010).

A short description of this data set: Related substance testing by HPLC on interaction samples after storage. The data set is classed as physicochemical.
The mark [1] stands for this setting: 40/75: incubator 40° C./75% RH for 6 days.

Where a name gives a salt, the structure may show the parent alone.

Protocol: The APIs alone and two initial, conventional finished dosage forms were analysed under three different storage conditions, ie. cold room storage, kept in an oven at 60° C. for 7 days and stored in an incubator held at 40° C./75% RH for 6 days. The mixtures of one or both APIs with an excipient were analysed under two different storage conditions, ie. kept in an oven at 60° C. for 7 days and stored in an incubator held at 40° C./75% RH for 6 days.
The list of samples are as follows: • Fluoxetine HCl alone • Olanzapine alone • Fluoxetine HCl/Olanzapine Capsules • Fluoxetine HCl+Microcrystalline cellulose • Fluoxetine HCl+Pregelatinised maize starch • Fluoxetine HCl+Maize starch • Fluoxetine HCl+Magnesium stearate • Fluoxetine HCl+Olanzapine • Fluoxetine HCl+Olanzapine+Microcrystalline cellulose • Fluoxetine HCl+Olanzapine+Pregelatinised maize starch • Fluoxetine HCl+Olanzapine+Maize starch • Fluoxetine HCl+Olanzapine+Magnesium stearate • Olanzapine Tablets • Olanzapine+Lactose monohydrate • Olanzapine+Microcrystalline cellulose • Olanzapine+Maize starch • Olanzapine+Pregelatinised maize starch • Olanzapine+Crospovidone • Olanzapine+Magnesium stearate • Olanzapine+Opadry® II coating ingredients
The samples were analysed after the allotted period of time and the level of known and unknown related substances were determined by HPLC.

Turning to `CNCCC(Oc1ccc(C(F)(F)F)cc1)c1ccccc1` (stereo not drawn) [Fluox API, Fluoxetine HCl], the “Impurity 1 (unknown related substance)” value reads like this: under setting [1], 0.041; (CR: cold room storage) 0.034; (Oven: 60° C. for 7 days) 0.039. In addition, the “Impurity 2 (unknown related substance)” value by setting is: under setting [1], 0.069; (CR: cold room storage) 0.068; (Oven: 60° C. for 7 days) 0.067.
